Laboratory results taken from ChEMBL document CHEMBL1156336, “Synthesis, X-ray crystal structure study and antitumoral evaluations of 5,6-disubstituted pyrimidine derivatives” (Bioorg Med Chem, 2010).

Assays:
MCF7 = test: Antitumor activity against human MCF7 cells after 72 hrs by MTT assay; settings: MCF7, 72 h
NCI-H460 = test: Antitumor activity against human H460 cells after 72 hrs by MTT assay; settings: NCI-H460, 72 h
MOLT-4 = test: Antitumor activity against human MOLT4 cells after 72 hrs by MTT assay; settings: MOLT-4, 72 h
SW-620 [1] = test: Antitumor activity against human SW620 cells after 72 hrs by MTT assay; settings: SW-620, 72 h
HCT-116 = test: Antitumor activity against human HCT116 cells after 72 hrs by MTT assay; settings: HCT-116, 72 h
SW-620 [2] = test: Selectivity ratio IC50 of 5-fluorouracil to compound for human SW620 cells; format: functional

Compound	IC50 (MCF7) [µM]	IC50 (NCI-H460) [µM]	IC50 (MOLT-4) [µM]	IC50 (SW-620 [1]) [µM]	IC50 (HCT-116) [µM]	Ratio IC50 (SW-620 [2])
Cc1[nH]c(=O)[nH]c(=O)c1CCO	> 100	> 100	> 100	> 100	> 100	–
CC(=O)OCCc1c(C)nc(Cl)nc1Cl	> 100	> 100	> 100	> 100	> 100	–
COc1nc(C)c(CCO)c(OC)n1	> 100	> 100	> 100	> 100	> 100	–
CC(=O)OCCc1c(C)[nH]c(=O)[nH]c1=O	> 100	> 100	> 100	> 100	> 100	–
COc1nc(C)c2c(n1)OCC2	> 100	> 100	–	> 100	> 100	–
COc1nc(C)c(CCOC(C)=O)c(OC)n1	65	47	–	44	40	–
COc1nc(Cl)nc(C)c1CCOC(C)=O	> 100	> 100	> 100	> 100	> 100	–
COc1nc(Cl)nc(C)c1CCO	> 100	> 100	–	> 100	> 100	–
COc1ccc(C(OCCc2c(C)nc(OC)nc2OC)(c2ccccc2)c2ccccc2)cc1	6	50	5	20	4	–
COc1nc(C)c(CCF)c(OC)n1	> 100	> 100	–	> 100	> 100	–
COc1nc(Cl)nc(C)c1CCF	> 100	> 100	–	> 100	> 100	–
Cc1nc(Cl)nc(Cl)c1CCCl	8	3	5	0.4	2	20
COc1nc(C)c(CCCl)c(OC)n1	> 100	> 100	> 100	> 100	> 100	–
COc1nc(CC(O)COCc2ccccc2)c(CCCl)c(OC)n1 (configuration not stated)	26	76	19	20	16	–
O=c1[nH]c(CC(O)COCc2ccccc2)c(CCCl)c(=O)[nH]1 (configuration not stated)	> 100	> 100	> 100	> 100	> 100	–
Cc1[nH]c(=O)[nH]c(=O)c1CCCl	> 100	> 100	> 100	> 100	> 100	–
Nc1ccn([C@@H]2O[C@H](CO)[C@@H](O)[C@@H]2O)c(=O)n1 [CYTARABINE]	≥ 100	0.1	1	30	0.1	–
O=c1[nH]cc(F)c(=O)[nH]1 [FLUOROURACIL]	–	–	0.03	–	–	–
